Measured values from US5932541A, “Method of adjusting the circadian rhythm of a mammal” (Gruenenthal GmbH, priority 1998, dated 1999).

Tests used:
hamsters = experiment: Visual observation of overt behavior for two hours post-injection; type: in vivo, hamster (Mesocricetus auratus)
Description: (§1) Animals were maintained initially in a 14:10 hour light:dark cycle for 7-10 days, then transferred to constant dim red lighting (RR) conditions for the remainder of the experiment (40-60 days). After free-running for 7 days in dim red lighting, animals either received Montirelin or vehicle intraperitoneally. The daily onset of wheel-running activity was defined as circadian time 12 (CT 12), and this time was used as a reference point in determining appropriate circadian injection times. The test animals were divided into eight groups of three animals each, and intraperitoneal injections of the active compound at dosage levels of 10 or 20 mg/kg or of the vehicle alone were administered to respective test groups at circadian time 3 (CT 3) or circadian time 16 (CT 16). The order of injections and time points was randomized. An additional 4 animals maintained in similar lighting conditions were visually observed for two hours post-injection of Montirelin (10 or 20 mg/kg) to determine any overt behavioral effects exerted by this compound. A total of 9 injections were made for each of the eight treatment groups.

Sprague-Dawley rats = experiment: Subacute repeated-dose intravenous toxicity study with four-week recovery
Description: Eight nine SPF Slc:SD rats of both sexes (age: four weeks, body weight: 70.0-81.6 g) were purchased from Shizuoka Agriculture Cooperative Association for Laboratory Animals. During a one-week quarantine/acclimation period, the animals were measured for body weight and observed for any general symptoms, and healthy animals showing normal growth were selected and used in the experiment at the age of five weeks.
Males and females were used in five groups (including the control group) of 10 animals/sex, and additional 10 animals/sex ere added to the control, 0.5 mg/kg and 50 mg/kg groups to investigate the reversibility of the toxic effect of the test substance. All these animals were randomized to each group by weight stratification so that the differences in initial mean body weight were within 2% between groups.
This study also included the vehicle control group.
Dosing solutions were prepared by dissolving a weighed amount of the test substance in physiological saline at a concentration of 1 W/V % using a volumetric flask. Lower dosing solutions were obtained by successive 10-fold dilution of the initial solution. The respective dosing solution was repeatedly administered intravenously once daily for 35 days into the tail vein at a rate of 0.2 ml/10 sec. using a 1/4 syringe for injection. The treatment was given at a constant volume of 0.5 ml/100 g body weight in all dose groups, and the control group was treated with physiological saline at the same volume in the same manner.
Clinical signs in all animals were observed daily between two and four hours after dosing according to Irwin's method of comprehensive observational assessment, and the type, severity, onset time and disappearance time of toxic symptoms were recorded. During the recovery period, the clinical observation was performed once daily in the morning in the same manner. The body weight, food consumption and water consumption were measured in all animals three times weekly in the morning throughout the treatment and recovery periods and recorded.

[1] = tested on: circadian rhythm of hamster wheel running activity; experiment: Phase shift of the circadian rhythm of hamster wheel running activity after intraperitoneal injection; type: in vivo, hamster (Mesocricetus auratus)
Description: A preliminary study was conducted to determine whether peripherally administered 6-methyl-5-oxo-3-thiomorpholinyl-carbonyl-L-histidyl-L-prolinamide (Montirelin) is capable of phase shifting the circadian rhythm of hamster wheel running activity. Twenty-four male hamsters [Mesocricetus auratus; 8-12 weeks of age; Charles River LAK:LVG(SYR)] were housed individually in cages equipped with running wheels, and food and water freely available. Animals were maintained in light-tight, ventilated cabinets (six cages per cabinet) in which the lighting schedule could be controlled. Each animal's wheel running activity was monitored continuously throughout each experiment using a data acquisition software kit (Chronobiology, Stanford, Calif.).
as §1
Phase shifts in the circadian activity rhythm were determined by measuring the phase difference between eye-fitted lines connecting the onset of activity for a period of ten days before and ten days after an experimental manipulation.

[2] = both sexes, 50 mg/kg, within the range of normal physiological variations
[3] = 20 mg/kg i.p., at both CT 3 and CT 16, individual hamsters

CC1SCC(C(=O)N[C@@H](Cc2c[nH]cn2)C(=O)N2CCC[C@H]2C(N)=O)NC1=O (stereo partly drawn) [Montirelin, 6-methyl-5-oxo-3-thiomorpholinylcarbonyl-L-histidyl-L-prolinamide]
overt behavior versus vehicle (hamsters; 10 mg/kg i.p. at CTs 3 and 16): no differences in overt behavior
overt behavior versus vehicle (hamsters; 20 mg/kg i.p. at both CT 3 and CT 16): clear differences in overt behaviors
clinical signs: polyuria (Sprague-Dawley rats; 5 mg/kg or higher groups, almost all males and females, peak about one hour after dosing day 0-3, disappearing by day 4-28): transient polyuria
clinical signs: systemic tremor (Sprague-Dawley rats; 50 mg/kg group, both sexes, from day 0, disappearing by day 6 in males, day 4 in females): systemic tremor was observed transiently during the injection
blood biochemical parameters (Sprague-Dawley rats; all treatment groups): No treatment-related abnormalities
gross changes at autopsy (Sprague-Dawley rats; all treatment groups): no treatment-related grossly abnormal changes
histopathology of other organs (light microscopy); liver and kidney (electron microscopy) (Sprague-Dawley rats; all treatment groups): no remarkable changes
histopathology: hypertrophy of serous cells in the submaxillary gland (Sprague-Dawley rats; both sexes of all treatment groups): showed dose-dependency
water consumption (Sprague-Dawley rats; both sexes receiving 5 mg/kg or above, day 2-3 until about week 4): increased
red blood cell count, hemoglobin and hematocrit (Sprague-Dawley rats; [2]): increasing tendency
total white blood cell count (Sprague-Dawley rats; [2]): decreasing tendency
food consumption and body weight, females (Sprague-Dawley rats; females): unremarkable
reversibility of observed changes (Sprague-Dawley rats; four-week recovery after discontinuing administration): All observed changes were reversed
urinary findings (urine volume) (Sprague-Dawley rats; males and females receiving 5 mg/kg or above, week 2 and 5 of treatment): unremarkable except for an increase in urine volume
body weight gain, males (Sprague-Dawley rats; males, particularly 0.5, 5 and 50 mg/kg): suppressed
death (Sprague-Dawley rats; rats, i.v. once daily 35 days, 0.05-50 mg/kg/day, administration and recovery periods): no death occurred
food consumption, males (Sprague-Dawley rats; treated males compared with control males): tended to decrease food consumption
Effects on the Phase of Wheel Running Activity, Group Averages ([1]; 10 mg/kg i.p. at CT 3): 4.3 ± 2.2 min
Effects on the Phase of Wheel Running Activity, Group Averages ([1]; 10 mg/kg i.p. at CT 16): 3.5 ± 2.3 min
Effects on the Phase of Wheel Running Activity, Group Averages ([1]; 20 mg/kg i.p. at CT 3): 5.5 ± 2.4 min
Effects on the Phase of Wheel Running Activity, Group Averages ([1]; 20 mg/kg i.p. at CT 16): 3.1 ± 2.0 min
phase advances in individual hamsters [1, 3]: ≈ 16 min.
phase delays in individual hamsters [1, 3]: ≈ 10 min.
